{"source": "patent US20090123979A1", "about": "“Methods of reducing the inhibitory effect of a tannin on the enzymatic hydrolysis of cellulosic material” (Novozymes, Inc., priority 2007, published 2009)", "key": {"[1]": {"test_system": "T1, Cellulolytic Enzyme Composition #1", "T1 construct": "other: PASC hydrolysis; mean ± SD; 0.01 g enzyme; Dixon plot linear regression intercept (1/Rate); other: AVICEL; rate from hydrolysis difference (%) at 0 and 6 hours; rate from hydrolysis difference; fused on or other part: The A. oryzae beta-glucosidase is the mature chain secreted behind the Humicola insolens endoglucanase V signal peptide, which is cleaved off", "assay": "AVICEL hydrolysis by Cellulolytic Enzyme Composition #1 with added compounds", "type": "biochemical, Trichoderma reesei", "source_text": "(§1) Initial hydrolysis rates were obtained from the first two hydrolysis time points (i.e., soluble sugar measurements) (with <20% hydrolysis extent in general, rate=(hydrolysis difference)/(time difference)). Double-reciprocal plots (1/(initial rate) vs 1/[cellulose] as function of tannic acid concentration) indicated a “mixed” type inhibition, but their complexity prevented extraction of simple inhibitor constants. Initial rate vs tannic acid concentration yielded an I50 (inhibitor concentration leading to 50% loss of hydrolysis rate) of 0.2±0.1 or 0.27±0.07 mM on PASC or AVICEL® hydrolysis, respectively\n(§2) To examine where tannic acid exerted its inhibition, a series of hydrolysis reactions of AVICEL® by Cellulolytic Enzyme Composition #1 was performed in which AVICEL® and Cellulolytic Enzyme Composition #1 were used fresh or after pre-incubation with tannic acid. […] (with detectable precipitation seen), the pre-incubated Cellulolytic Enzyme Composition #1 was gel-filtered using BioSpin 6 desalting columns (Bio-Rad, Hercules, Calif., USA). […] Hydrolysis of untreated or buffer-only pre-incubated AVICEL® and Cellulolytic Enzyme Composition #1, with or without inhibitors, served as controls."}, "[2]": {"test_system": "Cellulolytic Enzyme Composition #1", "assay": "AVICEL hydrolysis by Cellulolytic Enzyme Composition #1 with added compounds", "type": "biochemical, Trichoderma reesei", "settings": "AVICEL pre-incubated with 1 mM tannic acid 1 hour at 50° C., then washed", "source_text": "as §1, §2"}, "[3]": {"molecular_target": "T1, Cellulolytic Enzyme Composition #1", "assay": "PASC hydrolysis by Cellulolytic Enzyme Composition #1 with tannic acid", "type": "biochemical, Trichoderma reesei", "settings": "mean ± SD, 0.01 g enzyme per liter, pH 5.0, 50° C., read-out: I50 (inhibitor concentration leading to 50% loss of hydrolysis rate)", "source_text": "as §1"}, "[4]": {"molecular_target": "T2, Trichoderma reesei CEL6A cellobiohydrolase II (Trichoderma reesei, UniProt P07987, P359R)", "T2 construct": "made in house; host or cells: Fusarium venenatum", "T2 sequence (P07987 25-471 P359R)": "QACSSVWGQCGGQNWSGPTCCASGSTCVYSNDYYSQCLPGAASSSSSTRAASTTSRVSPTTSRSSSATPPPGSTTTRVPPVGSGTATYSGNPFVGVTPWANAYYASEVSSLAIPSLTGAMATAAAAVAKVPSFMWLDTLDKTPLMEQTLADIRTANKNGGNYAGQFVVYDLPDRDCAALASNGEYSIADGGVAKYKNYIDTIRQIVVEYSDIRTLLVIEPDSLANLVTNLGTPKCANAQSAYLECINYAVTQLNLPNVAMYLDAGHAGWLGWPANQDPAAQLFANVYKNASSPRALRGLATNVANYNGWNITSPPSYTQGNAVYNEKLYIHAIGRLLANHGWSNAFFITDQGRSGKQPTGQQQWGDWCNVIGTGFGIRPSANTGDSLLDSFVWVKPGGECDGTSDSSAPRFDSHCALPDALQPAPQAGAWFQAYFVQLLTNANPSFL", "assay": "PASC hydrolysis by CEL6A cellobiohydrolase II with tannic acid", "type": "biochemical", "settings": "1 mM tannic acid; 2 g PASC per liter, over 4 hours", "method": "(§3) The inhibitory effect of tannic acid was determined on Trichoderma reesei CEL7A cellobiohydrolase 1, Trichoderma reesei CEL6A cellobiohydrolase II, Trichoderma reesei CEL7B endoglucanase 1, and Trichoderma reesei CEL5A endoglucanase II using PASC as substrate."}, "[5]": {"molecular_target": "T3, Aspergillus oryzae CEL3A beta-glucosidase (Aspergillus oryzae, UniProt Q2UUD6)", "T3 construct": "made in house", "T3 sequence (Q2UUD6 20-861)": "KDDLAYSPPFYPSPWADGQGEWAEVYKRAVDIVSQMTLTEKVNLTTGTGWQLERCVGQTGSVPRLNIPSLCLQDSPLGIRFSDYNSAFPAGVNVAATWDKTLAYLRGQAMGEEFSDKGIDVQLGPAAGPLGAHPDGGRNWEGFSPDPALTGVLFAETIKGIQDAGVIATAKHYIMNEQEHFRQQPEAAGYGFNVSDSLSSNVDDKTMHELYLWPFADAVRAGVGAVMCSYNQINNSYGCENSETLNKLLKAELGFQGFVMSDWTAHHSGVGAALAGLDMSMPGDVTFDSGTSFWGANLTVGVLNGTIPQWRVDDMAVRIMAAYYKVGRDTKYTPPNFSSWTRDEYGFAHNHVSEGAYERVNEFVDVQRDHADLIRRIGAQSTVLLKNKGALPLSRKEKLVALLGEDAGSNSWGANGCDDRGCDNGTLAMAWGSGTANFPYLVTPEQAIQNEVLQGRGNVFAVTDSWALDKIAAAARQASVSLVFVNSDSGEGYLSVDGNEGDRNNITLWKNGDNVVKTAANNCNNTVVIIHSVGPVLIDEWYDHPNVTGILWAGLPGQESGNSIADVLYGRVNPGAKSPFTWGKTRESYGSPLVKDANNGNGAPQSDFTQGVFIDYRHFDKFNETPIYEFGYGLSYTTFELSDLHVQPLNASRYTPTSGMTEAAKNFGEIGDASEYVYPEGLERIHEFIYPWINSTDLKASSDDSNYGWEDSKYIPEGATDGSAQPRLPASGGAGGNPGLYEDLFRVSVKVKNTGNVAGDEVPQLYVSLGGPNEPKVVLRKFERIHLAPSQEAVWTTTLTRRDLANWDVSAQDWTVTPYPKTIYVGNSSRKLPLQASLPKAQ", "assay": "Cellobiose hydrolysis by CEL3A beta-glucosidase with tannic acid", "type": "biochemical", "method": "The effect of tannic acid on Aspergillus oryzae CEL3A beta-glucosidase was also evaluated using a series of “mini-scale” hydrolysis reactions according to the procedure described in Example 30, except that 1 mM tannic acid (corresponding to 10 mM galloyl and 1 mM glucosyl constituents) and 2 g of cellobiose and 1 mg of beta-glucosidase per liter of 39 mM sodium acetate pH 5.0 were used. Reactions without the addition of the tannic acid served as controls. The reaction was monitored by HPLC as described in Example 30.\nTannic acid was also evaluated in the hydrolysis of cellobiose."}, "[6]": {"molecular_target": "T4, Trichoderma reesei CEL7A cellobiohydrolase I (Trichoderma reesei, UniProt P62694, INS458P/R459P)", "T4 construct": "made in house", "T4 sequence (P62694 other isoform, or with tags, fused parts or gaps INS458P/R459P)": "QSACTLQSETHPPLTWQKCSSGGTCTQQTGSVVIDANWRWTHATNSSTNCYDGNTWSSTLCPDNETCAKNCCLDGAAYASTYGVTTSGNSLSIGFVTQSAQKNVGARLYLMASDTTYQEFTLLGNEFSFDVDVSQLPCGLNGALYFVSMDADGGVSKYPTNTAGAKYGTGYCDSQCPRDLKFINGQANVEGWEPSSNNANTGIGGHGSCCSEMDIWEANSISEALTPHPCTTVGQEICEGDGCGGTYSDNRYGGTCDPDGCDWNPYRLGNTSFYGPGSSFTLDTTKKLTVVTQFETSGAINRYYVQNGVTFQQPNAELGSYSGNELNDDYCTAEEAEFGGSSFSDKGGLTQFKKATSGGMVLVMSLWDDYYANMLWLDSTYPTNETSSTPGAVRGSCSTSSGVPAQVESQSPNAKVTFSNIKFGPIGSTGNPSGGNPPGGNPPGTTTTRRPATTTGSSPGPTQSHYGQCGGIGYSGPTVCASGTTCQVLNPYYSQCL", "assay": "PASC hydrolysis by CEL7A cellobiohydrolase I with tannic acid", "type": "biochemical", "method": "as §3\n(§4) To quantify the inhibition, tannic acid was evaluated in the hydrolysis of PASC."}, "[7]": {"molecular_target": "T5, Trichoderma reesei CEL7B endoglucanase I (Trichoderma reesei, UniProt P07981)", "T5 construct": "made in house; host or cells: Aspergillus oryzae JaL250", "T5 sequence (P07981 23-459)": "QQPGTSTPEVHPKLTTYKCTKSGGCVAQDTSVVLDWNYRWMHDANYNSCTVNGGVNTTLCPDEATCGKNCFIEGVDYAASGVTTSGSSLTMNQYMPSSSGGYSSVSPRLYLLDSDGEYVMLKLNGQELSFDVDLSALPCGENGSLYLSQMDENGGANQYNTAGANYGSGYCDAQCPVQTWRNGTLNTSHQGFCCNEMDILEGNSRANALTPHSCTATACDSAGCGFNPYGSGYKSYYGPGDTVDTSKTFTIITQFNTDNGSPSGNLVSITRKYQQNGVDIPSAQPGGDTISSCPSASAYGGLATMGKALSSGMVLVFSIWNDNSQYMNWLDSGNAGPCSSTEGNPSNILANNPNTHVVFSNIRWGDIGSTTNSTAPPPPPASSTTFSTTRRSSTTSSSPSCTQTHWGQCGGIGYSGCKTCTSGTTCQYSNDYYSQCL", "assay": "CMC hydrolysis by CEL7B endoglucanase I with tannic acid", "type": "biochemical", "settings": "1 mM tannic acid, 50° C., 4 hours", "method": "(§5) The effect of tannic acid on Trichoderma reesei CEL7B endoglucanase I and Trichoderma reesei CEL5A endoglucanase II was also evaluated using carboxymethylcellulose (CMC) as substrate. The hydrolysis reactions were conducted in duplicate using the “mini-plate-scale” hydrolysis procedure described in Example 33, except that 1 mM tannic acid and 10 to 20 g of carboxymethylcellulose (CMC) and 1 to 20 mg of enzyme per liter 50 mM sodium acetate pH 5.0 were used at 50° C. for 4 hours. Soluble reducing sugars were analyzed by a p-hydroxybenzoic acid hydrazide (PHBAH) assay according to the method of Lever, 1972, Anal. Biochem. 47: 273-279, instead of by HPLC as described in Examples 30 and 33. Reactions without the addition of the enzymes served as controls to correct background absorption. Spectrophotometric measurements were performed using a SPECTRAMAX™ 340PC reader (Molecular Devices Corp., Sunnyvale, Calif., USA) with COSTAR® 96-well microplates (Cole-Parmer Instrument Co, Vernon Hills, Ill., USA)."}, "[8]": {"molecular_target": "T6, Trichoderma reesei CEL5A endoglucanase II (Trichoderma reesei, UniProt P07982)", "T6 construct": "made in house", "T6 sequence (P07982 22-418)": "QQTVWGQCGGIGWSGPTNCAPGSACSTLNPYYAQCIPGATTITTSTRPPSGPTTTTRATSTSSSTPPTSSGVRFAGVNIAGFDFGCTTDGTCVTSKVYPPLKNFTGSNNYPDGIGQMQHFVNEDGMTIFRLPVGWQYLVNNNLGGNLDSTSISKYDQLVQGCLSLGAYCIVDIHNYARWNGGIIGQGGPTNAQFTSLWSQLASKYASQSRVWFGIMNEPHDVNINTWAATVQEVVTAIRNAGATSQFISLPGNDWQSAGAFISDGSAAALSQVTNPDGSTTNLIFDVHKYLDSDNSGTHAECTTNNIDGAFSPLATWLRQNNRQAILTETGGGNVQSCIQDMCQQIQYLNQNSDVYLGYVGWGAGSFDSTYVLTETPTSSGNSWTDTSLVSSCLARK", "assay": "PASC hydrolysis by CEL5A endoglucanase II with tannic acid", "type": "biochemical", "method": "as §3, §4"}, "[9]": {"molecular_target": "T6, Trichoderma reesei CEL5A endoglucanase II", "assay": "CMC hydrolysis by CEL5A endoglucanase II with tannic acid", "type": "biochemical", "settings": "1 mM tannic acid, 50° C., 4 hours", "method": "as §5"}, "[10]": {"molecular_target": "T5, Trichoderma reesei CEL7B endoglucanase I", "assay": "PASC hydrolysis by CEL7B endoglucanase I with tannic acid", "type": "biochemical", "method": "as §3, §4"}, "[11]": {"settings": "25 g AVICEL, 0.25 g enzyme per liter, 1 mM tannic acid, or 5 mM ellagic acid or 10 mM methyl gallate plus 1 mM glucose pentaacetate"}, "[12]": {"settings": "AVICEL, rate from hydrolysis difference (%) at 0 and 6 hours"}, "[13]": {"settings": "1 mM tannic acid, 2 g PASC per liter, over 4 hours"}, "[14]": {"settings": "PASC, 0.1 to 0.7 mM tannic acid"}}}
{"smiles": "O=C(OC[C@H]1O[C@@H](OC(=O)c2cc(O)c(O)c(OC(=O)c3cc(O)c(O)c(O)c3)c2)[C@H](OC(=O)c2cc(O)c(O)c(OC(=O)c3cc(O)c(O)c(O)c3)c2)[C@@H](OC(=O)c2cc(O)c(O)c(OC(=O)c3cc(O)c(O)c(O)c3)c2)[C@@H]1OC(=O)c1cc(O)c(O)c(OC(=O)c2cc(O)c(O)c(O)c2)c1)c1cc(O)c(O)c(OC(=O)c2cc(O)c(O)c(O)c2)c1", "note": "[tannic acid, Tannic acid]", "values": [{"measurement": "loss in initial rate of AVICEL hydrolysis", "setting": "[1]; [11]", "result": "~90", "unit": "%"}, {"measurement": "loss in the extent of AVICEL hydrolysis at day 8", "setting": "[1]; [11]", "result": "~70", "unit": "%"}, {"measurement": "Ki", "setting": "[1]; AVICEL hydrolysis, Cellulolytic Enzyme Composition #1, OPC in flavanone-equivalent subunits, read-out: inhibition constant Ki (x-intercept of Dixon plot)", "result": "~130", "unit": "µM"}, {"measurement": "IC50", "setting": "[1]; AVICEL hydrolysis, 0.01 g enzyme per liter, pH 5.0, 50° C., read-out: I50 (inhibitor concentration leading to 50% loss of hydrolysis rate)", "result": "270 ± 70", "unit": "µM"}, {"measurement": "Dixon plot linear regression intercept (1/Rate)", "setting": "[1]; [12]", "result": "0.045±0.017"}, {"measurement": "Dixon plot linear regression slope (1/Rate vs inhibitor concentration)", "setting": "[1]; [12]", "result": "0.356±0.033"}, {"measurement": "activity loss of pre-incubated Cellulolytic Enzyme Composition #1", "setting": "[1]; enzyme pre-incubated with 1 mM tannic acid 1 hour at 50° C., then gel-filtered", "result": "approximately 80%"}, {"measurement": "concentration dependence of inhibition of AVICEL hydrolysis", "setting": "[1]; tannic acid 0.05 mM to 1 mM, OPC 1 mM to 10 mM, 23 g AVICEL and 0.25 g enzyme per liter", "result": "increasingly inhibitory"}, {"measurement": "effect of pre-incubating AVICEL with inhibitor on hydrolysis", "setting": "[2]", "result": "did not affect the hydrolysis"}, {"measurement": "IC50", "setting": "[3]", "result": "200 ± 100", "unit": "µM"}, {"measurement": "effect on PASC hydrolysis by CEL6A cellobiohydrolase II", "setting": "[4]", "result": "significantly inhibited"}, {"measurement": "effect on cellobiose hydrolysis by CEL3A beta-glucosidase", "setting": "[5]; 1 mM tannic acid, 2 g cellobiose and 1 mg beta-glucosidase per liter", "result": "significantly inhibited"}, {"measurement": "type of inhibition, CEL3A beta-glucosidase", "setting": "[5]; cellobiose hydrolysis", "result": "mixed"}, {"measurement": "IC50", "setting": "[5]; cellobiose hydrolysis, 0.001 g enzyme per liter, pH 5, 50° C., read-out: I50 for CEL3A beta-glucosidase", "result": "~800", "unit": "µM"}, {"measurement": "IC50", "setting": "[6]", "result": "~1000", "unit": "µM"}, {"measurement": "effect on PASC hydrolysis by CEL7A cellobiohydrolase I", "setting": "[6]; [13]", "result": "significantly inhibited"}, {"measurement": "type of inhibition (double reciprocal plots), CEL7A CBHI", "setting": "[6]; [14]", "result": "mixed"}, {"measurement": "effect on CMC hydrolysis by CEL7B endoglucanase I", "setting": "[7]", "result": "significantly inhibited"}, {"measurement": "effect on PASC hydrolysis by CEL5A endoglucanase II", "setting": "[8]; [13]", "result": "significantly inhibited"}, {"measurement": "IC50", "setting": "[8]; PASC hydrolysis, mean ± SD, 0.04 g enzyme per liter, pH 5, 50° C., read-out: I50 for CEL5A EGII", "result": "320 ± 50", "unit": "µM"}, {"measurement": "type of inhibition (double reciprocal plots), CEL5A EGII", "setting": "[8]; [14]", "result": "mixed"}, {"measurement": "effect on CMC hydrolysis by CEL5A endoglucanase II", "setting": "[9]", "result": "significantly inhibited"}, {"measurement": "effect on PASC hydrolysis by CEL7B endoglucanase I", "setting": "[10]; [13]", "result": "significantly inhibited"}, {"measurement": "IC50", "setting": "[10]; PASC hydrolysis, mean ± SD, 0.04 g enzyme per liter, pH 5, 50° C., read-out: I50 for CEL7B EGI", "result": "300 ± 200", "unit": "µM"}, {"measurement": "type of inhibition (double reciprocal plots), CEL7B EGI", "setting": "[10]; [14]", "result": "mixed"}]}
